This note sets out measurements from BindingDB's records for doi:10.3109/14756366.2012.656622 (Shandong University, 2013).

Assay [1] addresses 72 kDa type IV collagenase (Pig, UniProt Q95JA4). In words: MMP-2 Inhibition Assay. As to the method: Gelatinase A (MMP-2) and TNBS were purchased from Sigma, and the substance was synthesized as described by Vijaykumar et al. The gelatinase, substance, and inhibitor were dissolved in sodium borate (pH8.5, 50 mmol/L) and incubated for 30 min at 37 °C, and then 0.03 % TNBS was added and incubated for another 20 min, the resulting solution was detected under 450 nm wavelength to gain absorption.

The target in a further assay is T1, Aminopeptidase N (Sus scrofa, UniProt P15145).
T1 sequence (P15145 whole entry): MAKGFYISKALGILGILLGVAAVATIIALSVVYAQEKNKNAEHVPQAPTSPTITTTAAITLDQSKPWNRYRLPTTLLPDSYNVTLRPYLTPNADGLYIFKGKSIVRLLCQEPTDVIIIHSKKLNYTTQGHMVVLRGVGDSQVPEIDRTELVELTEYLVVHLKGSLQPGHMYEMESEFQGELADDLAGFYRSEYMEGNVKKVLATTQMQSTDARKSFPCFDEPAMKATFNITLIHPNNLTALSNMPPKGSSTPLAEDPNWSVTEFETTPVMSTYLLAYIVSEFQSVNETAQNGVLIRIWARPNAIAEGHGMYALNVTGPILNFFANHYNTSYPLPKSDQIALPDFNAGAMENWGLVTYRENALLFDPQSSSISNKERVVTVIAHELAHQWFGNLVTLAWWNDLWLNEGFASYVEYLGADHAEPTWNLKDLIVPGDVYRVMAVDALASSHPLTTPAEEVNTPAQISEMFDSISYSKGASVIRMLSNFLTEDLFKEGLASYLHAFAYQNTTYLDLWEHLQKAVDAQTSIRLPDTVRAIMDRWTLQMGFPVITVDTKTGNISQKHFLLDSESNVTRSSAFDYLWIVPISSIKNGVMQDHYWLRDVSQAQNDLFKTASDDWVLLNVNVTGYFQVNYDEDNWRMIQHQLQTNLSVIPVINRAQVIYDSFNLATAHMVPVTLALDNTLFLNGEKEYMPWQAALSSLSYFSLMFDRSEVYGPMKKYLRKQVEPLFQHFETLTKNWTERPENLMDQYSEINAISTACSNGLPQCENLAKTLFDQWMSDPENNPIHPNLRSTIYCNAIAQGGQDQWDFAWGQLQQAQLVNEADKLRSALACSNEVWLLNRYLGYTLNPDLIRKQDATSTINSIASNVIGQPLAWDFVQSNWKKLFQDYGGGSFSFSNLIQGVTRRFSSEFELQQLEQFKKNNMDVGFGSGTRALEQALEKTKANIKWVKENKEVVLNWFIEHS
In words: APN Inhibition Assay. Particulars: pH 7.5; 25 °C. As to the method: IC50 values against APN from Porcine Kidney were determined by using L-Leu-p-nitroanilide as a substrate. All the solutions of the inhibitors were prepared in the assay buffer( pH 7.5). All the inhibitors were preincubated with APN for 5 min at room temperature. The assay mixture, which contained the inhibitor solution (concentration dependent on the inhibitor), the enzyme solution (4 mg/mL final concentration), and the assay buffer, was adjusted to 200 μL, and then incubated at 37 ℃ for 30 min.

Structures can show the parent of a compound that is named as a salt.

Chain of 72 kDa type IV collagenase (Q95JA4 whole entry): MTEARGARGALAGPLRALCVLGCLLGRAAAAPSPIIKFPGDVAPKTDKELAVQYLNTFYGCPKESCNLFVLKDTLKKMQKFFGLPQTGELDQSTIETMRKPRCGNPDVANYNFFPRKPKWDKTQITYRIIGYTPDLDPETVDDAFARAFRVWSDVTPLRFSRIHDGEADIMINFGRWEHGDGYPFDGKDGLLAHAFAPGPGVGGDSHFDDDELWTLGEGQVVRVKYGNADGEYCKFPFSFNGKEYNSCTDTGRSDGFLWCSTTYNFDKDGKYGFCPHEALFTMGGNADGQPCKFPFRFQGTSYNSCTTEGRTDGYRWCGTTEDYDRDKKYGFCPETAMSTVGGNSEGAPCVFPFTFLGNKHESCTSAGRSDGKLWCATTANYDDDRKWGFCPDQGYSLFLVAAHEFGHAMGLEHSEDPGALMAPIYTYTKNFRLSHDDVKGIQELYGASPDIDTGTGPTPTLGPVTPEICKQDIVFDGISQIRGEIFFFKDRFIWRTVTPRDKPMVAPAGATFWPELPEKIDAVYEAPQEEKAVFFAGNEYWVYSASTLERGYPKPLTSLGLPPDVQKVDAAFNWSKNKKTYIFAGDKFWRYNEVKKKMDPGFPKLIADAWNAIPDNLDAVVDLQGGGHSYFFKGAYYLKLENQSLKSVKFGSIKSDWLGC

On to `CC(C)C[C@H](NC(=O)[C@@H](O)[C@H](N)Cc1ccccc1)C(=O)O`, for which, in assay [1], the IC50 was 163 µM.
Consider `N[C@@H](c1ccccc1)[C@@H](O)C(=O)N[C@@H](Cc1ccccc1)C(=O)NO` [(2R,3S)-3-amino-2-hydroxy-N-((S)-1-(hydroxyamino)-1-oxo-3-phenylpropan-2-yl)-3-phenylpropanamide hydrochloride (7f)], for which the IC50 on Aminopeptidase N amounted to 44 µM; in assay [1], 249 µM.
`C[C@H](NC(=O)[C@H](O)[C@@H](N)c1ccccc1)C(=O)NO` [(2R,3S)-3-amino-2-hydroxy-N-((S)-1-(hydroxyamino)-1-oxopropan-2-yl)-3-phenylpropanamide hydrochloride (7c)] gave an IC50 in assay [1] of 292 µM.
In the case of `N[C@@H](c1ccccc1)[C@@H](O)C(=O)N[C@@H](Cc1ccc(O)cc1)C(=O)NO` [(2R,3S)-3-amino-2-hydroxy-N-((S)-1-(hydroxyamino)-3-(4-hydroxyphenyl)-1-oxopropan-2-yl)-3-phenylpropanamide hydrochloride (7g)], the IC50 at Aminopeptidase N is 173 µM; in assay [1] it was 299 µM.
The matching figures for `N[C@@H](c1ccccc1)[C@@H](O)C(=O)N[C@H](C(=O)NO)c1ccccc1` [(2R,3S)-3-amino-2-hydroxy-N-((S)-2-(hydroxyamino)-2-oxo-1-phenylethyl)-3-phenylpropanamide hydrochloride (7e)]: 1.26 µM and 213 µM.
For the molecule `N[C@@H](c1ccccc1)[C@@H](O)C(=O)N[C@@H](CO)C(=O)NO` [(2R,3S)-3-amino-2-hydroxy-N-((S)-3-hydroxy-1-(hydroxyamino)-1-oxopropan-2-yl)-3-phenylpropanamide hydrochloride (7h)], the IC50 amounted to 158 µM against Aminopeptidase N and 292 µM in assay [1].
In assay [1], `CCC(C)[C@H](NC(=O)[C@H](O)[C@@H](N)c1ccccc1)C(=O)O` (stereo partly drawn) [(2S)-2-((2R,3S)-3-amino-2-hydroxy-3-phenylpropanamido)-3-methylpentanoic acid hydrochloride (5d)] gave an IC50 of 264 µM.
For the molecule `CCC(C)[C@H](NC(=O)[C@H](O)[C@@H](N)c1ccccc1)C(=O)NO` (stereo partly drawn) [(2S)-2-((2R,3S)-3-amino-2-hydroxy-3-phenylpropanamido)-N-hydroxy-3-methylpentanamide hydrochloride (7d)], the IC50 against Aminopeptidase N worked out at 82.9 µM; in assay [1] it was 207 µM.
The matching figures for `N[C@@H](c1ccccc1)[C@@H](O)C(=O)N[C@H](C(=O)O)c1ccccc1` [(S)-2-((2R,3S)-3-amino-2-hydroxy-3-phenylpropanamido)-2-phenylacetic acid hydrochloride (5e)]: 198 µM and 254 µM.
Turning to `N[C@@H](c1ccccc1)[C@@H](O)C(=O)N[C@@H](Cc1ccc(O)cc1)C(=O)O` [(S)-2-((2R,3S)-3-amino-2-hydroxy-3-phenylpropanamido)-3-(4-hydroxyphenyl) propanoic acid hydrochloride (5g)], the IC50 in assay [1] turned out to be 407 µM.
On the same count and under the same terms, as for `N[C@@H](c1ccccc1)[C@@H](O)C(=O)N[C@@H](CO)C(=O)O` [(S)-2-((2R,3S)-3-amino-2-hydroxy-3-phenylpropanamido)-3-hydroxypropanoic acid hydrochloride (5h)], the figure is 562 µM.
As to `CC(C)[C@H](NC(=O)[C@H](O)[C@@H](N)c1ccccc1)C(=O)O` [(S)-2-((2R,3S)-3-amino-2-hydroxy-3-phenylpropanamido)-3-methylbutanoic acid hydrochloride (5b)], in assay [1], the IC50 amounted to 287 µM. Against the preceding molecule, the IC50 is about 2-fold lower.
In assay [1], `N[C@@H](c1ccccc1)[C@@H](O)C(=O)N[C@@H](Cc1ccccc1)C(=O)O` [(S)-2-((2R,3S)-3-amino-2-hydroxy-3-phenylpropanamido)-3-phenylpropanoic acid hydrochloride (5f)] gave a half-inhibitory concentration (IC50) of 497 µM.
In turn, `Cc1ccccc1NC(=O)[C@H](CC(C)C)NC(=O)[C@H](O)[C@@H](N)c1ccccc1` [(S)-2-((2R,3S)-3-amino-2-hydroxy-3-phenylpropanamido)-4-methyl-N-o-tolylpentanamide hydrochloride (9b)] registered an IC50 against Aminopeptidase N of 363 µM.
In the case of `CC(C)C[C@H](NC(=O)[C@H](O)[C@@H](N)c1ccccc1)C(=O)O` [(S)-2-((2R,3S)-3-amino-2-hydroxy-3-phenylpropanamido)-4-methylpentanoic acid hydrochloride (5a)], the IC50 against Aminopeptidase N was found to be 352 µM; in assay [1], 215 µM.
The matching figures for `CC(C)[C@H](NC(=O)[C@H](O)[C@@H](N)c1ccccc1)C(=O)NO` [(S)-2-((2R,3S)-3-amino-2-hydroxy-3-phenylpropanamido)-N-hydroxy-3-methylbutanamide hydrochloride (7b)]: 76.9 µM and 128 µM.
On the same counts, the results for `CC(C)C[C@H](NC(=O)[C@H](O)[C@@H](N)c1ccccc1)C(=O)NO` [(S)-2-((2R,3S)-3-amino-2-hydroxy-3-phenylpropanamido)-N-hydroxy-4-methylpentanamide hydrochloride (7a)] are 56.7 µM and 64.6 µM.
The matching figures for `C[C@H](NC(=O)[C@H](O)[C@@H](N)c1ccccc1)C(=O)O` [(S)-2-((2R,3S)-3-amino-2-hydroxy-3-phenylpropanamido)propanoic acid hydrochloride (5c)]: 342 µM and 273 µM.
With `CC(C)C[C@H](NC(=O)[C@H](Cc1ccccc1)NC(=O)[C@H](O)[C@@H](N)c1ccccc1)C(=O)O` [(S)-2-((S)-2-((2R,3S)-3-amino-2-hydroxy-3-phenylpropanamido)-3-phenylpropanamido)-4-methylpentanoic acid hydrochloride (5n)], the IC50 against Aminopeptidase N is 105 µM.
In assay [1], `CC(C)C[C@H](NC(=O)[C@H](O)[C@@H](N)c1ccccc1)C(=O)NC(C(=O)O)c1ccccc1` (stereo partly drawn) [(S)-2-((S)-2-((2R,3S)-3-amino-2-hydroxy-3-phenylpropanamido)-4-methylpentanamido)-2-phenylacetic acid hydrochloride (5k)] showed an IC50 of 186 µM.
Consider `CC(C)C[C@H](NC(=O)[C@H](O)[C@@H](N)c1ccccc1)C(=O)N[C@H](C(=O)O)C(C)C` [(S)-2-((S)-2-((2R,3S)-3-amino-2-hydroxy-3-phenylpropanamido)-4-methylpentanamido)-3-methylbutanoic acid hydrochloride (5i)], for which the half-inhibitory concentration (IC50) came out at 590 µM on Aminopeptidase N and 690 µM in assay [1].
The matching figures for `CC(C)C[C@H](NC(=O)[C@H](CC(C)C)NC(=O)[C@H](O)[C@@H](N)c1ccccc1)C(=O)O` [(S)-2-((S)-2-((2R,3S)-3-amino-2-hydroxy-3-phenylpropanamido)-4-methylpentanamido)-4-methylpentanoic acid hydrochloride (5j)]: 513 µM and 424 µM.

What is called IC50 is the concentration that inhibits the measured activity by half. Higher therefore signals lower potency.
